Data as given in patent US20150158914A1, “PEPTIDES, CONSTRUCTS AND USES THEREFOR” (priority 2010, published 2015).
Entries after “also recorded” stand apart in the source; their conditions may differ. Ends that are not written are not given here. * marks the point of attachment. FITC = O=C1OC2(c3ccc(O)cc3Oc3cc(O)ccc32)c2ccc(NC(=S)*)cc21

Experiments:
X-protein [1] = test: X-protein-mediated apoptosis of HepG2 transfectants (annexin-V staining); type: cell-based, hepatitis B virus; conditions: 10 μM peptide at 3 h, 3 and 24 h, or 3, 24 and 48 h, 51 h culture, listed as oligomerization domain peptide (aa 16-35)
Experimental: No PSG antibiotic was added to the medium as it can interfere with transfection efficiency. The medium was then removed and replaced with opti-MEM medium without 10% FCS. The amount of plasmid DNA used for transfection was […]. Firstly, 0.2 μg of either pcDNA3.1-HBX or pcDNA3-HBX Myc plasmid DNA was mixed with 25 μl of Opti-MEM medium, and then 0.2 μl of polymag transfection reagent was added (these solutions were prepared as a master mixes—the amounts mentioned are indicative for one well). The mixture was incubated for 20 min and then 25 μl added to the cells. The plate was placed onto a magnetic plate on a rotating platform for 20 min, and then the cells incubated for 3 h.
Cells were transfected with X-protein plasmid vectors as described above. After 3 h of transfection on the magnetic plate, the oligomerization domain peptide aa 16-35 or the control X-protein peptide aa 140-153 were added at a final concentration of 10 μM to the cells in MEM without 10% FCS, and cells incubated for either 3 h, 21 h, or 45 h. Peptides were added to MEM without FCS as serum can rapidly degrade small peptides. […]
A drop of mounting solution with DAPI was added to the cells, and covered with a cover slip. Slides were examined by fluorescence microscopy by using a Nikon E600 fluorescent microscope and photos were taken using Nikon ACT-1 software. […]

X-protein [2] = test: Non-reducing SDS-PAGE/Western blot of X-protein tertiary structure in HepG2 transfectants; type: cell-based, hepatitis B virus; conditions: peptide added thrice over 48 h, non-reducing conditions
Experimental: The inventors investigated how the oligomerization domain peptide (aa 16-35) antagonized X-protein-mediated function. The aim was to determine whether the peptide disrupted the tertiary structure of the X-protein. HepG2 cells were transfected with either the pCDNA3.1-HBX, pCDNA3-HBX Myc or pCDNA3-GFP plasmids and were treated thrice over 48 h with the oligomerization domain peptide (aa 16-35). Control transfectants were not treated with peptide. The nuclear subfraction was resolved by SDS-PAGE using non-reducing loading buffer to keep the disulphide bonding of the X-protein intact. The proteins were transferred onto a PVDF membrane, and probed with a mouse antihuman X-protein primary antibody, followed by a secondary goat anti-mouse HRP-conjugated antibody. […] Transfectants not treated with peptide expressed higher order forms of the X-protein, including the dimeric form at ˜34 kDa, and apparently even higher order structures (FIG. 11). In contrast, cells transfected with pCDNA3.1-HBX and pCDNA3-HBX Myc and treated with the oligomerization domain peptide expressed monomeric forms at ˜17 kDa and ˜21 kDa, respectively.

[3] = tested on: H441 lung carcinoma cell line; test: Peptide uptake by other cell lines; type: cell-based, human; conditions: H441, 3 h
Experimental: (§1) The cells were then incubated overnight at 37° and 5% CO2, and then washed thrice with media without FCS. The X-protein peptide in 250 μl of appropriate media without FCS was added to the cells at a final concentration of 10 μM, and the slides incubated for 3 h at 37° C. and 5% CO2. The cells were washed with PBS, fixed with 4% formaldahyde in PBS for 30 min, and washed thrice with PBS. […] The slides were dried overnight in the dark, and examined by microscopy by using a Nikon E600 fluorescent microscope. Photos were taken using Nikon ACT-1 software. For further examination, slides were then examined by confocal microscopy using a Leica TCS-SP2 confocal microscope.
(§2) The X-protein cell-permeable peptide aa 16-22 was tested for its ability to be taken up by other mammalian cell lines including the human C32 melanoma, DU145 prostate carcinoma, TK1 T cell lymphoma, H441 lung carcinoma, Rin-m5f rat pancreatic islet tumor and Cos-1/7 green monkey kidney cell lines. TK1 cells are suspension cells whereas all other cell lines are adherent cells. Cells were incubated with the fluoresceinated X-protein cell-permeable peptide 16-22 for 3 h in medium appropriate for that cell line in the absence of FCS. The HepG2 cell line was used as a positive control. The X-protein peptide was able enter all adherent cell lines regardless of type or source of the cell (FIGS. 22 and 23).

Cos-1 kidney cell line = test: Peptide uptake by other cell lines; type: cell-based, green monkey
Experimental: as §1, §2

Cos-7 kidney cell line = test: Peptide uptake by other cell lines; type: cell-based, green monkey
Experimental: as §1, §2

[4] = tested on: Rin-m5f pancreatic islet tumor cell line; test: Peptide uptake by other cell lines; type: cell-based, rat; conditions: 3 h
Experimental: as §1, §2

## FITC-Acp-LCLRPVGAESRGRPVSGPFG [Peptide 16-35]
X-protein [1]; pCDNA3-HBX Myc transfectants
  inhibition of full-length X-protein-mediated apoptosis: inhibited full-length X-protein-mediated apoptosis of HepG2 cells; also recorded: significantly reduced X-protein-mediated apoptosis in a dose-dependent fashion
X-protein [1]; pCDNA3.1-HBX transfectants
  inhibition of truncated X-protein-mediated apoptosis: inhibited truncated X-protein-mediated apoptosis of HepG2 cells; also recorded: significantly reduced X-protein-mediated apoptosis in a dose-dependent fashion
X-protein [2]
  overall level of the X-protein: did not decrease the overall level of the X-protein
X-protein [2]; listed as oligomerization domain peptide (aa 16-35)
  tertiary structure of the X-protein (dimeric and higher order forms): Disruption of the tertiary structure of the X-protein; also recorded: disrupts the tertiary structure of the X-protein, preventing dimerization and the formation of higher order structures

## FITC-LCLRPVG ({FITC}-LCLRPVG) [Peptide 16-22]
[3]
  entry into cells: taken up less efficiently
[3]; no FCS
  uptake of the peptide, cells positive: 60 to 70 % cells positive
Cos-1 kidney cell line; COS-1, 3 h
  entry into cells: taken up less efficiently
Cos-1 kidney cell line; Cos-1, 3 h, no FCS
  uptake of the peptide, cells positive: 60 to 70 % cells positive
Cos-7 kidney cell line; COS-7, 3 h
  entry into cells: taken up less efficiently
Cos-7 kidney cell line; Cos-7, 3 h, no FCS
  uptake of the peptide, cells positive: 60 to 70 % cells positive
[4]; Rin-m5f, no FCS
  uptake of the peptide, cells positive: 60 to 70 % cells positive
[4]; Rinm5f
  entry into cells: taken up less efficiently
